The values that follow are results of earlier work, collected in patent US6974685B2, “High production method of prenyl alcohol using saccharomyces cells” (Toyota Jidosha Kabushiki Kaisha 1, priority 2000, dated 2005).

The test system of this series is erg mutant of Saccharoinyces cerevisiae. The following applies: Curr. Genet., 18, 41-46 (1990).

Take `CC(C)=CCCC(C)=CCCC(C)=CCO` [FOH, farnesol]: the farnesol production is recorded as 1 mg/L.
